This is an account of results in ChEMBL document CHEMBL4184300, “Design and characterization of bivalent compounds as potential neuroprotectants for Alzheimer's disease: Impact of the spacer on biological activity” (Bioorg Med Chem Lett, 2018).

pEC50: −log10 of the molar value. Activity calls are given as the source filed them. The rule behind the calls is not given here.

Experiment [1] in a line: Neuroprotective activity against tetracycline removal-induced cytotoxicity in human MC65 cells assessed as increase in cell viability after 72 hrs by MTT assay. The experiment is classed as functional, cell-based. As to conditions: MC65, 72 h. In general terms: Tetrazolium assays rely on reduction of a dye to a coloured formazan, in cell work by metabolically active cells.

A short description of experiment [2]: Metal chelating activity assessed as Fe2+-compound complex formation at 50 uM after 10 mins by UV-Vis spectroscopic method.
Experiment [3] can be described thus: Metal chelating activity assessed as Cu2+-compound complex formation at 50 uM after 10 mins by UV-Vis spectroscopic method.
The nature of experiment [4]: Metal chelating activity assessed as Zn2+-compound complex formation at 50 uM after 10 mins by UV-Vis spectroscopic method.
The species entered for experiment [5] is Homo sapiens. Put plainly: Neuroprotective activity against tetracycline removal-induced cytotoxicity in human MC65 cells assessed as reduction in oxidative stress at 0.3 uM after 48 hrs by DCFH-DA dye based fluorescence assay. The experiment is classed as functional, cell-based.
The species entered for experiment [6] is Homo sapiens. Put plainly: Neuroprotective activity against tetracycline removal-induced cytotoxicity in human MC65 cells assessed as reduction in oxidative stress at 32 uM after 48 hrs by DCFH-DA dye based fluorescence assay. Type of experiment: functional, cell-based.
Another experiment has as its system N2a. Briefly: Neuroprotective activity in mouse N2A cells assessed as induction of neurite outgrowth at 0.3 uM after 48 hrs by fluorescence microscopic analysis. The experiment is classed as functional, cell-based.
For experiment [7], the species on record is Homo sapiens. Put plainly: Neuroprotective activity against tetracycline removal-induced cytotoxicity in human MC65 cells assessed as reduction in oxidative stress at 8 mM after 48 hrs by DCFH-DA dye based fluorescence assay. The experiment is classed as functional, cell-based.

What is called pEC50 is the negative decadic logarithm of the EC50, by convention in mol/L. In the case of `COc1cc(/C=C/C(=O)C(Cc2cn(CCC(=O)NCCCN3CCN(CCCNC(=O)CCN4CCN(CCCN[C@H]5CC[C@@]6(C)C(=CC[C@H]7[C@@H]8CC[C@H]([C@H](C)CCCC(C)C)[C@@]8(C)CC[C@@H]76)C5)CC4)CC3)nn2)C(=O)/C=C/c2ccc(O)c(OC)c2)ccc1O`, the negative-log EC50 (pEC50) in experiment [1] is 7.47. The outcome in experiment [2], in experiment [3] and in experiment [4] was inactive. Also, the outcome in the experiment listed under Homo sapiens [5] was Active.
As for `COc1cc(/C=C/C(=O)C(Cc2cn(CCCCNC(=O)CCC(=O)NCCCN3CCN(CCCNC(=O)CCN4CCN(CCCN[C@H]5CC[C@@]6(C)C(=CC[C@H]7[C@@H]8CC[C@H]([C@H](C)CCCC(C)C)[C@@]8(C)CC[C@@H]76)C5)CC4)CC3)nn2)C(=O)/C=C/c2ccc(O)c(OC)c2)ccc1O`, the pEC50 in experiment [1] was 7.51. Also, the outcome in experiment [2], in experiment [3] and in experiment [4] was inactive. Besides, in the experiment filed under Homo sapiens [5], the result was Active.
Consider `COc1cc(/C=C/C(=O)C(Cc2cn(CCNC(=O)CCC(=O)NCCCN3CCN(CCCNCCN[C@H]4CC[C@@]5(C)C(=CC[C@H]6[C@@H]7CC[C@H]([C@H](C)CCCC(C)C)[C@@]7(C)CC[C@@H]65)C4)CC3)nn2)C(=O)/C=C/c2ccc(O)c(OC)c2)ccc1O`, for which the pEC50 in experiment [1] was 7.47. Besides, the result in experiment [2], in experiment [3] and in experiment [4] was inactive. Besides, the result in the experiment filed under Homo sapiens [5] was Active.
Take `Cc1c(C)c2c(c(C)c1O)CCC(C)(C(=O)O)O2` (stereo not drawn): the result in the experiment listed under Homo sapiens [6] was Active.
Consider `COc1cc(/C=C/C(=O)C(Cc2cn(CCCCC(=O)NCCCN3CCN(CCCNCCN[C@H]4CC[C@@]5(C)C(=CC[C@H]6[C@@H]7CC[C@H]([C@H](C)CCCC(C)C)[C@@]7(C)CC[C@@H]65)C4)CC3)nn2)C(=O)/C=C/c2ccc(O)c(OC)c2)ccc1O`, for which, in experiment [1], the negative-log EC50 (pEC50) is 7.67. The outcome in experiment [2], in experiment [3] and in experiment [4] was inactive. Also, the result in the experiment listed under Homo sapiens [5] was Active.
Turning to `COc1cc(/C=C/C(=O)C(Cc2cn(CCNC(=O)CCC(=O)NCCCN3CCN(CCCNC(=O)CCN4CCN(CCCN[C@H]5CC[C@@]6(C)C(=CC[C@H]7[C@@H]8CC[C@H]([C@H](C)CCCC(C)C)[C@@]8(C)CC[C@@H]76)C5)CC4)CC3)nn2)C(=O)/C=C/c2ccc(O)c(OC)c2)ccc1O`, the pEC50 in experiment [1] is 7.50. The outcome in experiment [2], in experiment [3] and in experiment [4] was inactive. Further, the result in the experiment listed under Homo sapiens [5] was Active.
Turning to `COc1cc(/C=C/C(=O)C(Cc2cn(CCCCC(=O)NCCCN3CCN(CCCNC(=O)CCC(=O)NCCCN4CCN(CCCNCCN[C@H]5CC[C@@]6(C)C(=CC[C@H]7[C@@H]8CC[C@H]([C@H](C)CCCC(C)C)[C@@]8(C)CC[C@@H]76)C5)CC4)CC3)nn2)C(=O)/C=C/c2ccc(O)c(OC)c2)ccc1O`, in experiment [1], the negative-log EC50 (pEC50) is 7.03. For the same compound, the outcome in experiment [2], in experiment [3] and in experiment [4] was inactive. In addition, the result in the experiment listed under Homo sapiens [5] was Active.
In the case of `COc1cc(/C=C/C(=O)C(Cc2cn(CCCCNC(=O)CCC(=O)NCCCN3CCN(CCCNCCN[C@H]4CC[C@@]5(C)C(=CC[C@H]6[C@@H]7CC[C@H]([C@H](C)CCCC(C)C)[C@@]7(C)CC[C@@H]65)C4)CC3)nn2)C(=O)/C=C/c2ccc(O)c(OC)c2)ccc1O`, the negative logarithm of the EC50 (pEC50) in experiment [1] is 7.39. Moreover, the result in experiment [2], in experiment [3] and in experiment [4] was inactive. Moreover, in the experiment filed under Homo sapiens [5], the outcome was Active.
With `COc1cc(/C=C/C(=O)C(Cc2cn(CCC(=O)NCCCN3CCN(CCCNC(=O)CCC(=O)NCCCN4CCN(CCCNCCN[C@H]5CC[C@@]6(C)C(=CC[C@H]7[C@@H]8CC[C@H]([C@H](C)CCCC(C)C)[C@@]8(C)CC[C@@H]76)C5)CC4)CC3)nn2)C(=O)/C=C/c2ccc(O)c(OC)c2)ccc1O`, the pEC50 in experiment [1] is 7.47. Further, the outcome in experiment [2], in experiment [3] and in experiment [4] was inactive. The result in the experiment filed under Homo sapiens [5] was Active.
`COc1cc(/C=C/C(=O)C(Cc2cn(CCC(=O)NCCCN3CCN(CCCNCCN[C@H]4CC[C@@]5(C)C(=CC[C@H]6[C@@H]7CC[C@H]([C@H](C)CCCC(C)C)[C@@]7(C)CC[C@@H]65)C4)CC3)nn2)C(=O)/C=C/c2ccc(O)c(OC)c2)ccc1O`: the pEC50 in experiment [1] was 7.62. Further, the outcome (in experiment [2]; in experiment [3]; in experiment [4]; with N2a) was inactive. Also, the outcome in the experiment listed under Homo sapiens [5] was Active.
`COc1cc(/C=C/C(=O)C(Cc2cn(CCCCC(=O)NCCCN3CCN(CCCNC(=O)CCN4CCN(CCCN[C@H]5CC[C@@]6(C)C(=CC[C@H]7[C@@H]8CC[C@H]([C@H](C)CCCC(C)C)[C@@]8(C)CC[C@@H]76)C5)CC4)CC3)nn2)C(=O)/C=C/c2ccc(O)c(OC)c2)ccc1O`: the pEC50 in experiment [1] was 7.19. The result in experiment [2], in experiment [3] and in experiment [4] was inactive. Moreover, the result in the experiment filed under Homo sapiens [5] was Active.
For `CC(=O)N[C@@H](CS)C(=O)O`, the outcome in the experiment filed under Homo sapiens [7] was inactive.
